The numbers were not newly measured in patent US20070098643A1, “Oligomers of gadolinium chelates, their applicationascontrast products in magnetic resonance imaging and their synthesis intermediates” (priority 2002, published 2007), which cites them from elsewhere.

The subject of data set [1] is benign and malignant breast tumors. The settings on record: in this model; Daldrup-Link et al. 2000.
For data set [2] the following is noted: in vivo.

For the substance Gadomer-17, in data set [1], the “differentiation of benign from malignant tumors in MRI” value is “does not allow such a differentiation”. Also, in data set [2], the C5/C0 ratio is 21%, the distribution volume is 130 mL/kg, the plasma half-life is given as 37 min and the total plasma clearance is 8.1 mL/min/kg.
